Where “and” joins values, the source holds several entries; their conditions need not be identical. Equal entries are not always repeated. Structures can show the parent of a compound that is named as a salt.
Tested on: A-253 human salivary gland cell line
Test: iROS assay (DCFH-DA), H2O2-induced oxidative stress in A-253 cells
Format: cell-based
Conditions: for iROS assay - normalised data vs H2O2 (single values) / iROS assay - normalised data vs H2O2, Average / iROS assay - normalized data (single values) / iROS assay - normalized data, Average: H2O2(1 mM), 24 hours; for iROS assay - normalised data vs H2O2 (single values) / iROS assay - normalised data vs H2O2, Average: H2O2 alone = 1; for iROS assay - normalized data (single values) / iROS assay - normalized data, Average: unstimulated cells = 1; for Effect on iROS induced by H2O2 (in words): A-253 cells, 3-1000 μM
Description: Objective: The objective of this study was to investigate the effect of the test compound (CLX 156), on H2O2-induced oxidative stress in human submaxillary gland (HSG) cell line; A-253 cell line, in comparison with pilocarpine hydrochloride. Method: A-253 human salivary gland cell line was cultured in McCoy's 5a Medium Modified (ATCC) with 10% HI-FBS according to manufacturer's guidelines at 37° C. in the presence of 5% CO 2 in a humified incubator. The cells were sub-cultured using Trypsin-EDTA and 10,000 cells seeded into each 48 well cell culture plates with a media volume of 500 μl. The cells were allowed to grow for 48 hours. After 48 hours of culture, the cells were pre-incubated for 1 hour with the positive, reference and test compounds at the desired concentrations (see table 1) followed by the addition of 1 mM H2O2 to the culture media (without the removal of test compounds) to induce oxidative stress. The incubation was continued for 24 hours. After 24 hours of treatment with H2O2, the cells were used to assess iROS as described below. This is a cell-based assay for measuring hydroxyl, peroxyl, or other reactive oxygen species activity within a cell. The assay employs the cell-permeable fluorogenic probe 2′, 7′-Dichlorodihydrofluorescin diacetate (DCFH-DA). In brief, DCFH-DA is diffused into cells and is deacetylated by cellular esterases to non-fluorescent 2′,7′-Dichlorodihydrofluorescin (DCFH), which is rapidly oxidized to highly fluorescent 2′,7′-Dichlorodihydrofluorescein (DCF) by ROS. The fluorescence intensity is proportional to the ROS levels within the cell cytosol. OxiSelect˜ Intracellular ROS Assay Kit was used according to the manufacturer's guidelines (Cell Biolabs). In short, at Day 3 the cells were washed several times with PBS and then treated with 1X DCFH-DA in media and incubated for 30-60 minutes. After DCFH-DA treatment, the oxidative stress was induced by adding 1 mM H2O2 and the fluorescence signals measured after 24 hours using a plate reader.

CC[C@@H]1C(=O)OC[C@@H]1Cc1cncn1C.O=C(O)CCCC[C@@H]1CCSS1 [CLX 156, Pilocarpine-R-(+)-lipoate]
iROS assay - normalised data vs H2O2 (single values) (3 μM): 0.8216 and 0.8019 and 0.7870 | iROS assay - normalised data vs H2O2, Average (3 μM): 0.8035 | iROS assay - normalized data (single values) (3 μM): 6.2116 and 6.0622 and 5.9502 | iROS assay - normalized data, Average (3 μM): 6.0747 | iROS assay - normalised data vs H2O2 (single values) (10 μM): 0.7047 and 0.6981 and 0.7591 | iROS assay - normalised data vs H2O2, Average (10 μM): 0.7206 | iROS assay - normalized data (single values) (10 μM): 5.3278 and 5.2780 and 5.7386 | iROS assay - normalized data, Average (10 μM): 5.4481 | iROS assay - normalised data vs H2O2 (single values) (30 μM): 0.7294 and 0.7558 and 0.7755 | iROS assay - normalised data vs H2O2, Average (30 μM): 0.7536 | iROS assay - normalized data (single values) (30 μM): 5.5145 and 5.7137 and 5.8631 | iROS assay - normalized data, Average (30 μM): 5.6971 | iROS assay - normalised data vs H2O2 (single values) (100 μM): 0.7887 and 0.7377 and 0.7360 | iROS assay - normalised data vs H2O2, Average (100 μM): 0.7541 | iROS assay - normalized data (single values) (100 μM): 5.9627 and 5.5768 and 5.5643 | iROS assay - normalized data, Average (100 μM): 5.7012 | iROS assay - normalised data vs H2O2 (single values) (300 μM): 0.6224 and 0.6965 and 0.6553 | iROS assay - normalised data vs H2O2, Average (300 μM): 0.6581 | iROS assay - normalized data (single values) (300 μM): 4.7054 and 5.2656 and 4.9544 | iROS assay - normalized data, Average (300 μM): 4.9751 | iROS assay - normalised data vs H2O2 (single values) (1000 μM): 0.4676 and 0.4396 and 0.4841 | iROS assay - normalised data vs H2O2, Average (1000 μM): 0.4638 | iROS assay - normalized data (single values) (1000 μM): 3.5353 and 3.3237 and 3.6598 | iROS assay - normalized data, Average (1000 μM): 3.5062 | Effect on iROS induced by H2O2 (in words): significantly inhibited the iROS induced by H2O2 in A-253 cells in a concentration dependent manner | Inhibition of iROS compared with Pilocarpine HCL (in words) (A-253 salivary gland cell culture model): superior to Pilocarpine HCL in inhibiting the iROS induced by H2O2 | IC50 (H2O2-induced iROS in A-253 cells, read-out: IC50 for Intracellular ROS (iROS) inhibition): 552 µM

CC[C@@H]1C(=O)OC[C@@H]1Cc1cncn1C [Pilocarpine HCl, pilocarpine hydrochloride, reference compound]
iROS assay - normalised data vs H2O2, Average (3 μM): 1.0401 | iROS assay - normalised data vs H2O2 (single values) (3 μM, hydrochloride): 0.9995 and 1.0274 and 1.0933 | iROS assay - normalized data, Average (3 μM): 7.8631 | iROS assay - normalized data (single values) (3 μM, hydrochloride): 7.5560 and 7.7676 and 8.2656 | iROS assay - normalised data vs H2O2, Average (10 μM): 0.9018 | iROS assay - normalised data vs H2O2 (single values) (10 μM, hydrochloride): 0.8825 and 0.8760 and 0.9468 | iROS assay - normalized data, Average (10 μM): 6.8174 | iROS assay - normalized data (single values) (10 μM, hydrochloride): 6.6722 and 6.6224 and 7.1577 | iROS assay - normalised data vs H2O2, Average (30 μM): 0.8952 | iROS assay - normalised data vs H2O2 (single values) (30 μM, hydrochloride): 0.8941 and 0.8332 and 0.9583 | iROS assay - normalized data, Average (30 μM): 6.7676 | iROS assay - normalized data (single values) (30 μM, hydrochloride): 6.7593 and 6.2988 and 7.2448 | iROS assay - normalised data vs H2O2, Average (100 μM): 0.9226 | iROS assay - normalised data vs H2O2 (single values) (100 μM, hydrochloride): 0.9550 and 0.9336 and 0.8793 | iROS assay - normalized data, Average (100 μM): 6.9751 | iROS assay - normalized data (single values) (100 μM, hydrochloride): 7.2199 and 7.0581 and 6.6473 | iROS assay - normalised data vs H2O2, Average (300 μM): 0.9265 | iROS assay - normalised data vs H2O2 (single values) (300 μM, hydrochloride): 0.9040 and 0.8858 and 0.9896 | iROS assay - normalized data, Average (300 μM): 7.0041 | iROS assay - normalized data (single values) (300 μM, hydrochloride): 6.8340 and 6.6971 and 7.4813 | iROS assay - normalised data vs H2O2, Average (1000 μM): 0.9040 | iROS assay - normalised data vs H2O2 (single values) (1000 μM, hydrochloride): 0.8924 and 0.8842 and 0.9352 | iROS assay - normalized data, Average (1000 μM): 6.8340 | iROS assay - normalized data (single values) (1000 μM, hydrochloride): 6.7469 and 6.6846 and 7.0705 | Effect on iROS induced by H2O2 (in words): comparatively less in magnitude and showed no clear dose response

From patent publication US20240082162A1, “PHARMACEUTICAL FORMULATIONS OF PILOCARPINE R-(+)-LIPOATE” (Cellix Bio Private Limited, priority 2020, published 2024)
